Assay results taken from patent publication US11793880B2, “Conjugates of quaternized tubulysin compounds” (Seagen Inc., priority 2015, dated 2023).
Like-named read-outs stand apart in the source and are kept apart here.

Columns and labels:
[1] = system: Karpas299, L540cy, L428, DEL, DEL/BVR cell lines; assay: In vitro assays - tubulysin ADCs, statements across the cell line panel; assay type: cell-based; details: for potency relative to the ValAla comparator (15), in words: Table 5, cAC10 ADCs 8 drugs/mAb, quaternized tubulysin M
Protocol: (§1) In vitro assays. Cells cultured in log-phase growth were seeded for 24 h in 96-well plates containing 150 μL RPMI 1640 supplemented with 20% FBS. Serial dilutions of antibody-drug conjugates in cell culture media were prepared at 4× working concentrations; 50 μL of each dilution was added to the 96-well plates. […] After 96 h, growth inhibition was assessed by CellTiter-Glo® (Promega, Madison, WI) and luminescence was measured on a plate reader.
(§2) In vitro assays—tubulysin ADCs. ADCs were prepared by t Ell reduction of interchain disulfides to reveal 8-conjugatable cysteines/antibody that were alkylated through Michael addition with the maleimide-containing Drug Linker compounds. […] conjugates hearing quaternized tubulysin ethers with and without a PEG12 side-chain were compared to their tubulysin M analogs.
(§3) Several hydrophilic linker constructs incorporating quaternized tubulysin M were prepared and evaluated in vitro; the results are shown in Table 5. The data (IC50 values in ng/mL) indicate that Conjugates prepared from Drug Linker compounds having quaternized tubulysin M linked via a hydrophilic ValGlu dipeptide with (95) or without (91) a PEG12 side chain, or linked via a hydrophilic glucuronide (82) provide ADCs that are equipotent to the ValAla comparator (15).

DEL/BVR, MDR + ALCL = system: DEL/BVR, MDR + ALCL
Protocol: as §1, §2, §3

L428, MDR + HL = system: L428, MDR + HL
Protocol: as §1, §2, §3

L540cy, HL = system: L540cy, HL
Protocol: as §1, §2, §3

Karpas299, ALCL = assay: In vitro assays - tubulysin ADCs (cAC10, anti-CD30); assay type: cell-based; details: Table 4; cAC10 ADCs DAR 8, 96 h
Protocol: In vitro assays. Cells cultured in log-phase growth were seeded for 24 h in 96-well plates containing 150 μL RPMI 1640 supplemented with 20% FBS. Serial dilutions of antibody-drug conjugates in cell culture media were prepared at 4× working concentrations; 50 μL of each dilution was added to the 96-well plates. Following addition of ADC, cells were incubated with test articles for 4 d at 37° C. After 96 h, growth inhibition was assessed by CellTiter-Glo® (Promega, Madison, WI) and luminescence was measured on a plate reader.

[2] = system: antigen-negative Hep3B hepatocellular carcinoma cells; details: Table 5, cAC10 ADCs 8 drugs/mAb, MDPR-Linker-TubM
Protocol: as §1, §3

DEL, ALCL = details: Table 5; cAC10 ADCs 8 drugs/mAb, MDPR-Linker-TubM
Protocol: as §1, §2, §3

[3] = Table 4, cAC10 ADCs DAR 8, 96 h
[4] = Table 5, cAC10 ADCs 8 drugs/mAb, MDPR-Linker-TubM

Structure (SMILES): CCO[C@H](C[C@H](C(C)C)N(C)C(=O)[C@@H](NC(=O)[C@H]1CCCC[N+]1(C)Cc1ccc(O[C@@H]2O[C@H](C(=O)O)[C@@H](O)[C@H](O)[C@H]2O)c(NC(=O)CCNC(=O)[C@H](CN)N2C(=O)C=CC2=O)c1)[C@@H](C)CC)c1nc(C(=O)N[C@@H](Cc2ccccc2)C[C@H](C)C(=O)O)cs1 (stereo partly drawn) [Compound 57, (2R)-1-(3-(3-((S)-3-amino-2-(2,5-dioxo-2,5-dihydro-1H-pyrrol-1-yl)propanamido)propanamido)-4-(((2S,3R,4S,5S,6S)-6-carboxy-3,4,5-trihydroxytetrahydro-2H-pyran-2-yl)oxy)benzyl)-2-(((2S,3S)-1-(((1R,3R)-1-(4-(((2R,4S)-4-carboxy-1-phenylpentan-2-yl)carbamoyl)thiazol-2-yl)-1-ethoxy-4-methylpentan-3-yl)(methyl)amino)-3-methyl-1-oxopentan-2-yl)carbamoyl)-1-methylpiperidin-1-ium]
- conjugate potency, in words ([1]; Table 4, cAC10 conjugates 8 drug/Ab): consistently more potent
- IC50, DEL/BVR, MDR + ALCL (DEL/BVR, MDR + ALCL; [3]): 5 ng/mL
- IC50, L428, MDR + HL (L428, MDR + HL; [3]): 4 ng/mL
- IC50, L540cy, HL (L540cy, HL; [3]): 5 ng/mL
- IC50, Karpas299, ALCL (Karpas299, ALCL): 1 ng/mL

Structure (SMILES): CC[C@H](C)[C@H](NC(=O)[C@H]1CCCC[N+]1(C)Cc1ccc(O[C@@H]2O[C@H](C(=O)O)[C@@H](O)[C@H](O)[C@H]2O)c(NC(=O)CCNC(=O)[C@H](CN)N2C(=O)C=CC2=O)c1)C(=O)N(C)[C@H](C[C@@H](OC(C)=O)c1nc(C(=O)N[C@@H](Cc2ccccc2)C[C@H](C)C(=O)O)cs1)C(C)C (stereo partly drawn) [Compound 82, (2R)-2-(((2S,3S)-1-(((1R,3R)-1-acetoxy-1-(4-(((2R,4S)-4-carboxy-1-phenylpentan-2-yl)carbamoyl)thiazol-2-yl)-4-methylpentan-3-yl)(methyl)amino)-3-methyl-1-oxopentan-2-yl)carbamoyl)-1-(3-(3-((S)-3-amino-2-(2,5-dioxo-2,5-dihydro-1H-pyrrol-1-yl)propanamido)propanamido)-4-(((2S,3R,4S,5S,6S)-6-carboxy-3,4,5-trihydroxytetrahydro-2H-pyran-2-yl)oxy)benzyl)-1-methylpiperidin-1-ium]
- IC50, Hep3B CD30- HCC [2]: >1000 ng/mL
- IC50, DEL/BVR, MDR + ALCL (DEL/BVR, MDR + ALCL; [3]): 3 ng/mL
- IC50, DEL/BVR, MDR + ALCL (DEL/BVR, MDR + ALCL; [4]): 4 ng/mL
- IC50, L428, MDR + HL (L428, MDR + HL; [3]): 0.5 ng/mL
- IC50, L428, MDR + HL (L428, MDR + HL; [4]): 0.4 ng/mL
- IC50, DEL, ALCL (DEL, ALCL): 0.3 ng/mL
- IC50, L540cy, HL (L540cy, HL; [3]): 4 ng/mL
- IC50, L540cy, HL (L540cy, HL; [4]): 1 ng/mL
- IC50, Karpas299, ALCL (Karpas299, ALCL): 0.6 ng/mL

Structure (SMILES): CC[C@H](C)[C@H](NC(=O)[C@H]1CCCC[N+]1(C)Cc1ccc(NC(=O)[C@H](CCC(=O)O)NC(=O)[C@@H](NC(=O)[C@H](CCCCNC(=O)CCOCCOCCOCCOCCOCCOCCOCCOCCOCCOCCOCCOC)NC(=O)[C@H](CN)N2C(=O)C=CC2=O)C(C)C)cc1)C(=O)N(C)[C@H](C[C@@H](OC(C)=O)c1nc(C(=O)N[C@@H](Cc2ccccc2)C[C@H](C)C(=O)O)cs1)C(C)C (some centres unmarked) [Compound 95]
- IC50, Hep3B CD30- HCC [2]: >1000 ng/mL
- potency relative to the ValAla comparator (15), in words [1]: equipotent
- IC50, DEL/BVR, MDR + ALCL (DEL/BVR, MDR + ALCL; [4]): 2 ng/mL
- IC50, L428, MDR + HL (L428, MDR + HL; [4]): 0.2 ng/mL
- IC50, DEL, ALCL (DEL, ALCL): 0.1 ng/mL
- IC50, L540cy, HL (L540cy, HL; [4]): 0.8 ng/mL

Structure (SMILES): CC[C@H](C)[C@H](NC(=O)[C@H]1CCCC[N+]1(C)Cc1ccc(NC(=O)[C@H](CCC(=O)O)NC(=O)[C@@H](NC(=O)[C@H](CN)N2C(=O)C=CC2=O)C(C)C)cc1)C(=O)N(C)[C@H](C[C@@H](OC(C)=O)c1nc(C(=O)N[C@@H](Cc2ccccc2)C[C@H](C)C(=O)O)cs1)C(C)C (stereo partly drawn) [Compound 91, (2R)-2-(((2S,3S)-1-(((1R,3R)-1-acetoxy-1-(4-(((2R,4S)-4-carboxy-1-phenylpentan-2-yl)carbamoyl)thiazol-2-yl)-4-methylpentan-3-yl)(methyl)amino)-3-methyl-1-oxopentan-2-yl)carbamoyl)-1-(4-((S)-2-((S)-2-((S)-3-amino-24 (2,5-dioxo-2,5-dihydro-1H-pyrrol-1-yl)propanamido)-3-methylbutanamido)-4-carboxybutanamido)benzyl)-1-methylpiperidin-1-ium]
- IC50, Hep3B CD30- HCC [2]: >1000 ng/mL
- potency relative to the ValAla comparator (15), in words [1]: equipotent
- IC50, DEL/BVR, MDR + ALCL (DEL/BVR, MDR + ALCL; [4]): 2 ng/mL
- IC50, L428, MDR + HL (L428, MDR + HL; [4]): 0.3 ng/mL
- IC50, DEL, ALCL (DEL, ALCL): 0.1 ng/mL
- IC50, L540cy, HL (L540cy, HL; [4]): 1 ng/mL
